Where two headings read alike, the source gives them in different places.
How the values were obtained:
Assay type in all cases: cell-based, human
[1] = test system: NCI-H441; assay: NCI-H441/PBMC co-culture: cancer cell count; conditions: Table 9
Method: (§1) For the co-culture assay, cancer cells were plated on transparent flat bottom polystyrene plates and allowed to attach overnight. On the next day, serially diluted (1:4) test articles were formulated at 3× starting concentration in complete RPMI media and added onto each well. Human PBMCs were thawed and resuspended in RPMI supplemented with 10% heat-inactivated fetal bovine serum from Hyclone, 1% Penicillin/Streptomycin and 2 mmol/L-glutamax. PBMCs were then added into the same well at a final ratio of PBMCs:cancer cells =30:1. Plates were incubated for 2 or 3 days at 37° C. with 5% CO2 in a cell culture incubator.
(§2) On the day of sample collection, cell culture supernatants were collected and stored at −80° C. until cytokine release analyses were performed. […] After incubation on ice for 1 hour, cells were washed with FACS buffer and fixed with 50 ul/well of 2% PFA (paraformaldehyde) for 20 minutes. Cells were then washed with FACS buffer again and read on Cytek flow cytometer. FACS data analysis was done by Flowjo software to identifymonocytes, B cells, CD4+ T cells, CD8+ T cells, NK cells and Dendritic cells and their activation status. Data from Flowjo was exported and plotted using non-linear regression analysis, log (agonist/inhibitor) vs. response, variable slope, 4-parameter fit equation in GraphPad Prism. […]

[2] = test system: TROP2 negative NCI-H460 cells; assay: NCI-H460/PBMC co-culture: cancer cell count; conditions: Table 10
Method: as §1, §2

[3] = test system: NCI-H292 cells; assay: Immunogenic cell death markers (HMGB1 release, surface calreticulin); conditions: 48 hours; for EC50: Homo sapiens
Method: Immunogenic cell death elicited by the TROP2 ADC, iSAC, and exatecan were measured by cell surface translocate of calreticulin and release of HMGB1 in the cell culture supernatant. Briefly, TROP2 positive cell line NCI-H292 were seeded into a 96-well flat bottom plate 4 hours prior to the initialization of the assay. Test articles were formulated at a 2× starting concentration in cell culture medium, and samples were serial diluted (1:3) under sterile conditions and added onto the cells in duplicates. After incubation at 37° C. in a CO2 incubator for 48 hours, the cell supernatant was collected for measuring HMGB1 and the adherent cells were collected for calreticulin expression on the cell surface.
HMGB1 released in the supernatant was assessed via sandwich ELISA using mouse anti-human HMGB1 clone 2F6 (Sigma-Aldrich) as the capture, polyclonal rabbit anti-human HMGB1 (Abcam) as secondary, and polyclonal goat anti-rabbit IgG HRP as the detection antibody. The HMGB1 concentrations in the cell culture medium were calculated based a standard curve built on commercially available recombinant human HMGB1 (R&D Systems).
NCI-H292 cells were detached using Accutase (Innovative Cell Technologies) and viability was accessed using a 1:500 dilution of Zombie NIR viability dye. […] Surface calreticulin measures on the live cells were gathered using an Attune NXT Flow Cytometer (ThermoFisher Scientific) to obtain median fluorescence intensity values. All data were fitted with non-linear regression analysis, using log(agonist) vs. response, variable slope, 4 parameter fit equation using GraphPad Prism.

[4] = test system: TROP2 positive NCI-H292 Cells; assay: Cytokine release from cancer cells (MSD); conditions: 120 hours; for EC50: Homo sapiens
Method: The cell supernatant was collected and IP-10 and IL-6 released in the cell culture medium was measured using Streptavidin single spot 96 well plates, compatible human antibody pairs, and calibrating solutions commercially available from MesoScale Discovery. Raw data generated by the Meso Scale Discovery (MSD®) SQ120 plate reader was imported into MSD Discovery Workbench software. Unknown sample values were interpolated from standard curves by the software and imported into Graphpad Prism. Each cytokine level was fitted with non-linear regression analysis, using log (agonist) vs. response, variable slope, 4-parameter fit equation in GraphPad Prism.

CC[C@@]1(O)C(=O)OCc2c1cc1n(c2=O)Cc2c-1nc1cc(F)c(C)c3c1c2[C@@H](N)CC3 [Exatecan, reference compound]
IC50 ([1]; Homo sapiens): 0.44 nM
Cancer Cell Count Span (Cell Count) [1]: 5,749 Cell Count
IC50 ([2]; Homo sapiens, NCI-H460/PBMC co-culture (TROP2 negative)): 0.38 nM
Cancer Cell Count Span (Cell Count) ([2]; NCI-H460/PBMC co-culture): 23,530 Cell Count
Calreticulin Span (MFI) [3]: 783 MFI
HMGB-1 Release Span [3]: 55 ng/mL
EC50 ([3]; sandwich ELISA, read-out: HMGB-1 Release EC50): 2.08 nM
EC50 ([3]; surface calreticulin on live cells, read-out: Calreticulin EC50): 0.19 nM
IL-6 Release Span [4]: 1410 pg/mL
IP-10 Release Span [4]: 203 pg/mL
EC50 ([4]; read-out: IL-6 Release EC50): 14.7 nM
EC50 ([4]; read-out: IP-10 Release EC50): 0.87 nM
